# Data published in patent US20190169140A1, “IDO1 INHIBITOR AND PREPARATION METHOD AND APPLICATION THEREOF” (SHANDONG LUYE PHARMACEUTICAL CO., LTD., priority 2016, published 2019).
# Legend:
# [1] = target: T1, recombinant human IDO1 enzyme (Homo sapiens, UniProt P14902); assay: Test of hIDO1 for enzymatic activity in vitro (NFK Green fluorescence); assay type: biochemical
# T1 construct: purchased NTRC (Netherlands Translational Research Center) NTRC-hIDO-10K
# Method: 1. Test of hIDO1 for Enzymatic Activity In Vitro
# 1.1 Purpose of Experiment:
# Changes in production of NFK, an IDO1 enzymatic metabolite were detected with NFK Green™ fluorescent molecules. With an IC50 value of a compound as an index, an inhibitory effect of the compound on recombinant human IDO1 enzyme was evaluated.
# The compound was diluted with dimethyl sulfoxide (DMSO) to 1 mM, with 10 gradients, each 3-fold dilution, in duplicate. 48 μL of 50 mM phosphate buffer, having pH of 6.5, was transferred by the Bravo automatic liquid processing platform to the compound plate. Then 2 μL of an already diluted compound/DMSO solution was added. After even mixing, 10 μL of the resultant mixture was transferred to the enzymatic reaction plate.
# IDO1 enzyme was diluted to 20 nM in a reaction buffer (50 mM phosphate buffer with pH of 6.5, 0.1% of Tween-20, 2% of glycerol, 20 mM ascorbic acid, 20 μg/ml catalase, and 20 μM methylene blue), 20 μL of the diluted IDO1 enzyme was transferred to the enzymatic reaction plate, and incubated at 23° C. for 30 minutes. 10 μL of 400 μM L-type tryptophan substrate was added to start reaction. The incubation lasted at 23° C. for 90 minutes. 10 μL of NFK Green™ fluorescent dye was added. The resultant mixture was sealed with the plate sealing film. After incubation at 37° C. for 4 hours, an Envision multi-functional plate reader was used for reading (Ex 400 nm/Em 510 nm).
# A reference well to which the IDO1 enzyme was added but no compound was added was set to have an inhibition rate of 0%, and a reference well to which no IDO1 enzyme was added was set to have an inhibition rate of 100%. Data was analyzed with XLFit 5 to calculate an IC50 value of the compound.
# [2] = Test for permeability across MDR1; assay type: in vitro ADME; conditions: dog, MDCK-MDR1
# Method: Test for Permeability Across MDR1
# A sample for test was dissolved in dimethyl sulfoxide (DMSO) or other suitable solvents, to be prepared into 10 mM stock solution. A suitable internal standard (IS) was dissolved in acetonitrile (ACN) or other organic solvents as a stop solution. Specific information would be described in a research report.
# Fenoterol, propranolol, and digoxin acted as low-permeability control, high-permeability control, and P-gp substrate in the present research. The stock solutions of these compounds were prepared with DMSO, stocked at 2-8° C., and valid for use within 3 months.
# In the present project, a Hank's balanced salt buffer containing 10 mM HEPES was used as a transport buffer.
# MDR1-MDCK II cells were cultivated using α-MEM culture media (α-Minimum Essential Media), with a culture condition of 37±1° C., 5% CO2, and saturated relative humidity. Afterwards, the cells were inoculated into a BD Transwell-96-well plate (BD Gentest), with an inoculation density of 2.3×10^5 cells/cm^2, then the cells were placed in a carbon dioxide incubator to be incubated for 4-7 days, and then used for a transport experiment.
# A solution to be used was placed in a 37±1° C. water bath kettle to be pre-incubated for 30 minutes. The donor solution and the receiver solution were respectively added to corresponding sides of wells of cell plate (to an apical side and a basolateral side, 75 μL and 250 μL of samples were added respectively), and experiment of bidirectional transport was started. After the addition of the samples, the cell plate was placed in a 37±1° C., 5% CO2 incubator with saturated relative humidity to be incubated for 150 minutes.
# The samples were all centrifuged at 3220 g for 10 minutes after being shaken in a vortex manner. A suitable volume of a supernatant was transferred to a sample analyzing plate. If analysis was not carried out immediately after the plate was sealed, the plate was stored at 2-8° C. The analysis was carried out through a method of LC/MS/MS.
# The sample for test, fenoterol control, propranolol control, and digoxin were analyzed in a semiquantitative manner, and specific values of analytes to a peak area of the internal standard were taken as concentration of the controls.
# [3] = Death and body weight of tumor-bearing mice (CT26 model); assay type: in vivo
# Method: Therefore, the dose of the two compounds, compound 360 and compound 117, in the present experiment was set as 100 mg/kg. In order to observe dose-efficacy relevance of 231, a dose of the compound 231 was set as 25, 50, 100, 200 mg/kg in the present experiment. All drugs were administered by gavage, twice a day.
# The day of tumor inoculation was defined as Day 0, and the inoculated animals were grouped randomly on the day of inoculation. One day after the inoculation (Day 1), the administration was started. The experiment had 7 groups in total, with 12 animals in each group. See details in Table 12 for information on animal grouping and administration.
# (3) As for animal weight, body weight of the mouse was weighed each time when the tumor diameter was measured or before the administration, and death of the animals was observed once a day.
# 7.1 Death and Body Weight of Tumor-Bearing Mice
# T1 sequence (P14902 whole entry): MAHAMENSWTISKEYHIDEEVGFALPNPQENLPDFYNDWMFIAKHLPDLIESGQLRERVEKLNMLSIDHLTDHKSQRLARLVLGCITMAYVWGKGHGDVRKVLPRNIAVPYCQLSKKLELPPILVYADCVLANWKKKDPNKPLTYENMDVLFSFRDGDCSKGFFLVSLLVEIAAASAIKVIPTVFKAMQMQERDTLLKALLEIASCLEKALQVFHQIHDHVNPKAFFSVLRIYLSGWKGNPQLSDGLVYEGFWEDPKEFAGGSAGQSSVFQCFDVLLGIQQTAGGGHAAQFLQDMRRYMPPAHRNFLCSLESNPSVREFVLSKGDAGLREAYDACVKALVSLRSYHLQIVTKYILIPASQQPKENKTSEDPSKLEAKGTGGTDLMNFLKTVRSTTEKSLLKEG
smiles,measurement,setting,value
CC(=O)NCCSc1nonc1/C(=N/O)Nc1ccc(F)c(Br)c1 [Compound 0227],IC50,[1],59.3 nM
same,"Papp A→B at 150 min, 2 µM",[2],12.5 ×10⁻⁶ cm/s
same,"Papp B→A at 150 min, 2 µM",[2],18 ×10⁻⁶ cm/s
NC(=O)NCCSc1nonc1/C(=N/O)Nc1ccc(F)c(Br)c1 [Compound 0231],IC50,[1],42.2 nM
same,Rate of Weight Change of D17 vs D1,[3]; 25 mg/kg gavage BID,12.0%
same,body weight compared with the control group when the experiment was ended,[3]; 25 mg/kg gavage BID,no significant difference
same,Body weight of tumor-bearing mice,"[3]; 25 mg/kg gavage BID, D12",23.9 g
same,Body weight of tumor-bearing mice,"[3]; 25 mg/kg gavage BID, D14",24.4 g
same,Body weight of tumor-bearing mice,"[3]; 25 mg/kg gavage BID, D17",25.2 g
same,Body weight of tumor-bearing mice,"[3]; 25 mg/kg gavage BID, Day1",22.5 g
same,Body weight of tumor-bearing mice,"[3]; 25 mg/kg gavage BID, Day3",21.5 g
same,Body weight of tumor-bearing mice,"[3]; 25 mg/kg gavage BID, Day6",23.3 g
same,Body weight of tumor-bearing mice,"[3]; 25 mg/kg gavage BID, Day8",23.0 g
same,Body weight of tumor-bearing mice,"[3]; 25 mg/kg gavage BID, Day10",23.1 g
same,Rate of Weight Change of D17 vs D1,[3]; 50 mg/kg gavage BID,7.5%
same,body weight compared with the control group when the experiment was ended,[3]; 50 mg/kg gavage BID,remarkably decreased weight
same,Body weight of tumor-bearing mice,"[3]; 50 mg/kg gavage BID, D12",23.4 g
same,Body weight of tumor-bearing mice,"[3]; 50 mg/kg gavage BID, D14",24.2 g
same,Body weight of tumor-bearing mice,"[3]; 50 mg/kg gavage BID, D17",24.5 g
same,Body weight of tumor-bearing mice,"[3]; 50 mg/kg gavage BID, Day1",22.8 g
same,Body weight of tumor-bearing mice,"[3]; 50 mg/kg gavage BID, Day3",23.0 g
same,Body weight of tumor-bearing mice,"[3]; 50 mg/kg gavage BID, Day6",22.7 g
same,Body weight of tumor-bearing mice,"[3]; 50 mg/kg gavage BID, Day8",22.6 g
same,Body weight of tumor-bearing mice,"[3]; 50 mg/kg gavage BID, Day10",23.2 g
same,Rate of Weight Change of D17 vs D1,[3]; 100 mg/kg gavage BID,8.4%
same,body weight compared with the control group when the experiment was ended,[3]; 100 mg/kg gavage BID,remarkably decreased weight
same,Body weight of tumor-bearing mice,"[3]; 100 mg/kg gavage BID, D12",23.5 g
same,Body weight of tumor-bearing mice,"[3]; 100 mg/kg gavage BID, D14",24.3 g
same,Body weight of tumor-bearing mice,"[3]; 100 mg/kg gavage BID, D17",24.4 g
same,Body weight of tumor-bearing mice,"[3]; 100 mg/kg gavage BID, Day1",22.5 g
same,Body weight of tumor-bearing mice,"[3]; 100 mg/kg gavage BID, Day3",22.7 g
same,Body weight of tumor-bearing mice,"[3]; 100 mg/kg gavage BID, Day6",22.8 g
same,Body weight of tumor-bearing mice,"[3]; 100 mg/kg gavage BID, Day8",23.2 g
same,Body weight of tumor-bearing mice,"[3]; 100 mg/kg gavage BID, Day10",23.4 g
same,Rate of Weight Change of D17 vs D1,[3]; 200 mg/kg gavage BID,4.4%
same,body weight compared with the control group when the experiment was ended,[3]; 200 mg/kg gavage BID,remarkably decreased weight
same,Body weight of tumor-bearing mice,"[3]; 200 mg/kg gavage BID, D12",22.3 g
same,Body weight of tumor-bearing mice,"[3]; 200 mg/kg gavage BID, D14",22.9 g
same,Body weight of tumor-bearing mice,"[3]; 200 mg/kg gavage BID, D17",23.7 g
same,Body weight of tumor-bearing mice,"[3]; 200 mg/kg gavage BID, Day1",22.7 g
same,Body weight of tumor-bearing mice,"[3]; 200 mg/kg gavage BID, Day3",23.2 g
same,Body weight of tumor-bearing mice,"[3]; 200 mg/kg gavage BID, Day6",20.8 g
same,Body weight of tumor-bearing mice,"[3]; 200 mg/kg gavage BID, Day8",21.9 g
same,Body weight of tumor-bearing mice,"[3]; 200 mg/kg gavage BID, Day10",22.0 g
same,"Papp A→B at 150 min, 2 µM",[2],3.79 ×10⁻⁶ cm/s
same,"Papp B→A at 150 min, 2 µM",[2],17.9 ×10⁻⁶ cm/s
NS(=O)(=O)NCCSc1nonc1/C(=N/O)Nc1ccc(F)c(Br)c1 [Compound 0117],IC50,[1],26.2 nM
same,Rate of Weight Change of D17 vs D1,[3]; 100 mg/kg gavage BID,8.5%
same,body weight compared with the control group when the experiment was ended,[3]; 100 mg/kg gavage BID,remarkably decreased weight
same,Body weight of tumor-bearing mice,"[3]; 100 mg/kg gavage BID, D12",23.1 g
same,Body weight of tumor-bearing mice,"[3]; 100 mg/kg gavage BID, D14",23.3 g
same,Body weight of tumor-bearing mice,"[3]; 100 mg/kg gavage BID, D17",24.2 g
same,Body weight of tumor-bearing mice,"[3]; 100 mg/kg gavage BID, Day1",22.3 g
same,Body weight of tumor-bearing mice,"[3]; 100 mg/kg gavage BID, Day3",22.7 g
same,Body weight of tumor-bearing mice,"[3]; 100 mg/kg gavage BID, Day6",22.7 g
same,Body weight of tumor-bearing mice,"[3]; 100 mg/kg gavage BID, Day8",21.8 g
same,Body weight of tumor-bearing mice,"[3]; 100 mg/kg gavage BID, Day10",22.9 g
same,"Papp A→B at 150 min, 2 µM",[2],3.2 ×10⁻⁶ cm/s
same,"Papp B→A at 150 min, 2 µM",[2],11.3 ×10⁻⁶ cm/s
NS(=O)(=O)NCCOc1nonc1/C(=N/O)Nc1ccc(F)c(Br)c1 [Compound 0015],IC50,[1],115 nM
same,"Papp A→B at 150 min, 2 µM",[2],1.76 ×10⁻⁶ cm/s
same,"Papp B→A at 150 min, 2 µM",[2],13.6 ×10⁻⁶ cm/s
"NS(=O)(=O)NCCNc1nonc1C(=NO)Nc1ccc(F)c(Br)c1 [Compound 360, INCB024360, reference compound]",Rate of Weight Change of D17 vs D1,[3]; 100 mg/kg gavage BID,9.4%
same,body weight compared with the control group when the experiment was ended,[3]; 100 mg/kg gavage BID,no significant difference
same,Body weight of tumor-bearing mice,"[3]; 100 mg/kg gavage BID, D12",24.5 g
same,Body weight of tumor-bearing mice,"[3]; 100 mg/kg gavage BID, D14",25.0 g
same,Body weight of tumor-bearing mice,"[3]; 100 mg/kg gavage BID, D17",25.3 g
same,Body weight of tumor-bearing mice,"[3]; 100 mg/kg gavage BID, Day1",23.2 g
same,Body weight of tumor-bearing mice,"[3]; 100 mg/kg gavage BID, Day3",23.5 g
same,Body weight of tumor-bearing mice,"[3]; 100 mg/kg gavage BID, Day6",23.7 g
same,Body weight of tumor-bearing mice,"[3]; 100 mg/kg gavage BID, Day8",23.5 g
same,Body weight of tumor-bearing mice,"[3]; 100 mg/kg gavage BID, Day10",23.9 g
same,"Papp A→B at 150 min, 2 µM",[2],1.61 ×10⁻⁶ cm/s
same,"Papp B→A at 150 min, 2 µM",[2],13.3 ×10⁻⁶ cm/s
